In ChEMBL document CHEMBL1133847, “Fipronil-based photoaffinity probe for Drosophila and human beta 3 GABA receptors” (Bioorg Med Chem Lett, 2001):

Target: T1, Gamma-aminobutyric acid receptor subunit beta-3 (Homo sapiens, UniProt P28472)
T1 sequence (P28472 whole entry): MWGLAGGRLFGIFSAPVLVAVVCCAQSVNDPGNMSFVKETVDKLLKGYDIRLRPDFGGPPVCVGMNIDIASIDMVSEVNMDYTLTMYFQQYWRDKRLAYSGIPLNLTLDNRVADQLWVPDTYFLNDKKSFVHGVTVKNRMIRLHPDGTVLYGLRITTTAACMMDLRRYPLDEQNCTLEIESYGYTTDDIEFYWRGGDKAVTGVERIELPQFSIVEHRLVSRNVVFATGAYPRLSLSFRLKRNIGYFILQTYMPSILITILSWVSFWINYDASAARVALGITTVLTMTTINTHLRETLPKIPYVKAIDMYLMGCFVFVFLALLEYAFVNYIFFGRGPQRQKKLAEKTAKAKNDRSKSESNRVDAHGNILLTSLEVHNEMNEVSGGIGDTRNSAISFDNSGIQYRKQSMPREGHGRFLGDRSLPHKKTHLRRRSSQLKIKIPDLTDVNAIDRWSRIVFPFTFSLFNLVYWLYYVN
Assay: Inhibition of [3H]EBOB binding to human GABA-A receptor beta3 subunit (range 1-28)

## FC(F)(F)c1cc(Cl)c(-n2cc(C3(C(F)(F)F)N=N3)cn2)c(Cl)c1
  IC50: 28 nM

## N#Cc1nn(-c2c(Cl)cc(C(F)(F)F)cc2Cl)c(N)c1[S+]([O-])C(F)(F)F (configuration not stated) [FIPRONIL]
  IC50: 28 nM
